# Reference: ChEMBL document CHEMBL3779840, “Discovery of 2-((3-Amino-4-methylphenyl)amino)-N-(2-methyl-5-(3-(trifluoromethyl)benzamido)phenyl)-4-(methylamino)pyrimidine-5-carboxamide (CHMFL-ABL-053) as a Potent, Selective, and Orally Available BCR-ABL/SRC/p38 Kinase Inhibitor for Chronic Myeloid Leukemia” (J Med Chem, 2016)
# What was measured:
# [1] = system: K562; assay: Antiproliferative activity against human K562 cells assessed as cell viability after 72 hrs by CellTiter-Glo or CCK-8 assay; format: functional; conditions: K562, 72 h
# [2] = Antiproliferative activity against mouse BA/F3 cells assessed as cell viability after 72 hrs by CellTiter-Glo or CCK-8 assay; format: cell-based, BaF3
# [3] = target: Transcription factor ETV6/Tyrosine-protein kinase ABL1 (Homo sapiens) (UniProt P00519+P41212); conditions: BaF3
# Description: Inhibition of Tel-ABL (unknown origin) expressed in mouse BA/F3 cells assessed as cell growth inhibition after 72 hrs by CellTiter-Glo or CCK-8 assay
# [4] = target: Bcr/Abl fusion protein (Homo sapiens) (UniProt P00519+P11274); conditions: BaF3
# Chain of Bcr/Abl fusion protein (Homo sapiens) (P00519 whole entry, looked up, the tested form may be a part): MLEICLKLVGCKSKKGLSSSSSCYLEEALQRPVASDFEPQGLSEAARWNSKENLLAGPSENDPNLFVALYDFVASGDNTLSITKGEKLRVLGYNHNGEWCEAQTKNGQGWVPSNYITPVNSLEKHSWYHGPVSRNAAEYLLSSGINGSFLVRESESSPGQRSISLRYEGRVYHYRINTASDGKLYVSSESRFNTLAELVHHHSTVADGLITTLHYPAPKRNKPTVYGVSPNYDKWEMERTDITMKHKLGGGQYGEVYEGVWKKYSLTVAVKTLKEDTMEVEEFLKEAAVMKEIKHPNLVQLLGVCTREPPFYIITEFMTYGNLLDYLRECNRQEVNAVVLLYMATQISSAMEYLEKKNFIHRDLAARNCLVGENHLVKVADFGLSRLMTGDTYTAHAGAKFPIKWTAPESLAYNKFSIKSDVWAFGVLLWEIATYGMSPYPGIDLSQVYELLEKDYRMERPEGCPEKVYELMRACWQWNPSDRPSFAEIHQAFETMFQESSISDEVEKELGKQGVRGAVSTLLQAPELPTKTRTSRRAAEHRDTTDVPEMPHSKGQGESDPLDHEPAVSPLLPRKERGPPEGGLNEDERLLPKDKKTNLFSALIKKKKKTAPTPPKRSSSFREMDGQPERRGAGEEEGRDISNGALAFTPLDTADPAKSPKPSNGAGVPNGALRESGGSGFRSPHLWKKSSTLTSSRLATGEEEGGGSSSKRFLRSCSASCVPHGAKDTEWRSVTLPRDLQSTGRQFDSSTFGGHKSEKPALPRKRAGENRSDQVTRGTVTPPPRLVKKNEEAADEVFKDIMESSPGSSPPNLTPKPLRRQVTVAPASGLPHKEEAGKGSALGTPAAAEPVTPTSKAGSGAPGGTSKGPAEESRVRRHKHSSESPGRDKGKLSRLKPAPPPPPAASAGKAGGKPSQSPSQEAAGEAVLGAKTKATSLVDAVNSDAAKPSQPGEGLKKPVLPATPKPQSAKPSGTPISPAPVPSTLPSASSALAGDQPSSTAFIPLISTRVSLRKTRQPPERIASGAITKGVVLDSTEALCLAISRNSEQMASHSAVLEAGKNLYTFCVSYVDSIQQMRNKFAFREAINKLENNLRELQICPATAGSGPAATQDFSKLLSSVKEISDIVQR
# Chain of Bcr/Abl fusion protein (Homo sapiens) (P11274 whole entry, looked up, the tested form may be a part): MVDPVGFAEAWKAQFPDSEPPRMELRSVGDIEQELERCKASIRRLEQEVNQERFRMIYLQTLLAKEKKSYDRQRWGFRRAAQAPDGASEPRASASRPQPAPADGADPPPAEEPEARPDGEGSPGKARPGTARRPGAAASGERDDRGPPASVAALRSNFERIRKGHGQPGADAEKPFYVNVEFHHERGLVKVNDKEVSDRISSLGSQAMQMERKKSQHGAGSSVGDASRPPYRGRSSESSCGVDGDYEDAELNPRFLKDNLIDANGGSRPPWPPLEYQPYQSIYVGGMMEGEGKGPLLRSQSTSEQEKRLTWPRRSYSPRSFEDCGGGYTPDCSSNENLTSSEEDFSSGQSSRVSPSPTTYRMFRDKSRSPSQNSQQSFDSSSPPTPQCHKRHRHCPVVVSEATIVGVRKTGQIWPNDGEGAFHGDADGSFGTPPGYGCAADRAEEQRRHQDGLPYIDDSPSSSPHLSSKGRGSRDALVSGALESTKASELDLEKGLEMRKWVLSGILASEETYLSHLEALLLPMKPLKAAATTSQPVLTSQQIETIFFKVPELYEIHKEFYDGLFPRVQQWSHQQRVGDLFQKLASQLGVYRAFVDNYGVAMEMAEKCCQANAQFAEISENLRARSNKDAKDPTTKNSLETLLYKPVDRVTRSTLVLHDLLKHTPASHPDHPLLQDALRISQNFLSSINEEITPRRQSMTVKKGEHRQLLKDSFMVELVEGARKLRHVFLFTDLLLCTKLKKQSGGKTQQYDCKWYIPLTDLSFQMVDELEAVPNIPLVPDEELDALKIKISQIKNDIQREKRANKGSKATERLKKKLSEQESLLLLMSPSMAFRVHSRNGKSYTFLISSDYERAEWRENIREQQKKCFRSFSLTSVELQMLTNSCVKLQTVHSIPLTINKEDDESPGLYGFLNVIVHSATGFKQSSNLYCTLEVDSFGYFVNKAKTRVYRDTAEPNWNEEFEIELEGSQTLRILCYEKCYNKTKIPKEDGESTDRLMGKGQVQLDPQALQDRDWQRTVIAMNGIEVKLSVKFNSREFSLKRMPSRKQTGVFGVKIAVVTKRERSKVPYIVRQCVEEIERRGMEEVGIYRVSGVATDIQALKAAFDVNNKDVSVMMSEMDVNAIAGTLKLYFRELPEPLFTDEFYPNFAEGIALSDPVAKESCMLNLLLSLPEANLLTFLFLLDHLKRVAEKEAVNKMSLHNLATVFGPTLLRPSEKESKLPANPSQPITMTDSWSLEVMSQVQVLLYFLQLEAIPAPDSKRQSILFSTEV
# Description: Inhibition of BCR/ABL p210 (unknown origin) expressed in mouse BA/F3 cells assessed as growth inhibition after 72 hrs by CellTiter-Glo or CCK-8 assay
# Chain of Transcription factor ETV6/Tyrosine-protein kinase ABL1 (Homo sapiens) (P00519 whole entry, looked up, the tested form may be a part): as the sequence (P00519 whole entry, looked up, the tested form may be a part) above
# Chain of Transcription factor ETV6/Tyrosine-protein kinase ABL1 (Homo sapiens) (P41212 whole entry, looked up, the tested form may be a part): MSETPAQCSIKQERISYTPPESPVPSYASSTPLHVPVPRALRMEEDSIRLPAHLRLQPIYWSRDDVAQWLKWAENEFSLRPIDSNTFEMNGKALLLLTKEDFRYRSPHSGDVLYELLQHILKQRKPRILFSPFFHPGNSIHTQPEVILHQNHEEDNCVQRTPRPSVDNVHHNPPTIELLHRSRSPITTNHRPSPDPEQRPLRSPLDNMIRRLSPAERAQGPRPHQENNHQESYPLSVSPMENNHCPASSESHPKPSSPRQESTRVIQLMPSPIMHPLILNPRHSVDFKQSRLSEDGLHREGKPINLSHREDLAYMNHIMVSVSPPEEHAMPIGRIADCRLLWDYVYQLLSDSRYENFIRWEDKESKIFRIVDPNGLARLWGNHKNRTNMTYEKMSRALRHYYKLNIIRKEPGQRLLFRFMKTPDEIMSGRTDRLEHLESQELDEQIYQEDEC
Compound,GI50 [1] [nM],GI50 [3] [nM],GI50 [4] [nM],GI50 at 72 h [2] [nM]
Cc1ccc(NC(=O)c2cccc(C(F)(F)F)c2)cc1N1Cc2cnc(OC3CCN(C(=O)OC(C)(C)C)CC3)nc2N(C)C1=O,29,288,132,> 10000
CNc1nc(Nc2ccc(C)c(N)c2)ncc1C(=O)Nc1cc(NC(=O)c2ccccc2OC)ccc1C,1980,5200,6400,> 10000
CNc1nc(Nc2ccc(C)c(N)c2)ncc1C(=O)Nc1cc(NC(=O)c2cc(OC)c(OC)c(OC)c2)ccc1C,250,445,670,> 10000
Cc1ccc(Nc2ncc3c(n2)N(C)C(=O)N(c2cc(NC(=O)c4cc(C(C)(C)C)cc(C(C)(C)C)c4)ccc2C)C3)cc1N,1300,96,120,> 10000
Cc1ccc(Nc2ncc3c(n2)N(C)C(=O)N(c2cc(NC(=O)c4cccc(C(F)(F)F)c4)ccc2C)C3)cc1N,3,5,5,440
CNc1cc(Nc2ncc3c(n2)N(C)C(=O)N(c2cc(NC(=O)c4cccc(C(F)(F)F)c4)ccc2C)C3)ccc1C,19,20,14,> 10000
CNc1nc(Nc2ccc(C)c([N+](=O)[O-])c2)ncc1C(=O)Nc1cc(NC(=O)c2cc(OC)cc(OC)c2)ccc1C,1070,2030,294,> 10000
Cc1ccc(Nc2ncc3c(n2)N(C)C(=O)N(c2cc(NC(=O)c4cccc(C(F)(F)F)c4)ccc2C)C3)cc1,18,50,19,8000
Cc1ccc(Nc2ncc(C(=O)Nc3cc(NC(=O)c4cccc(C(F)(F)F)c4)ccc3C)cn2)cc1N,330,590,470,> 10000
Cc1cc(C)cc(C(=O)Nc2ccc(C)c(N3Cc4cnc(Nc5ccc(C)c(N)c5)nc4N(C)C3=O)c2)c1,26,31,42,> 10000
Cc1ccc(Nc2ncc3c(n2)N(C)C(=O)N(c2cc(NC(=O)c4cccc(C(F)(F)F)c4)ccc2C)C3)cc1C,17,61,66,3760
CNc1nc(Nc2ccc(C)c(N)c2)ncc1C(=O)Nc1cc(NC(=O)c2ccc(OC)cc2)ccc1C,610,1300,2100,> 10000
Cc1cccc(C(=O)Nc2ccc(C)c(N3Cc4cnc(Nc5ccc(C)c(N)c5)nc4N(C)C3=O)c2)c1,68.8,6,14,> 10000
Cc1ccc(NC(=O)c2cccc(C(F)(F)F)c2)cc1N1Cc2cnc(NC3CCNCC3)nc2N(C)C1=O,19,100,150,3000
CNc1nc(Nc2ccc(C)c(N)c2)ncc1C(=O)Nc1cc(NC(=O)c2ccc3c(c2)OCO3)ccc1C,353,570,124,> 10000
CNc1nc(Nc2ccc(C)c(N)c2)ncc1C(=O)Nc1cc(NC(=O)c2cccc(OC)c2)ccc1C,330,524,570,> 10000
CNc1nc(Nc2ccc(C)c([N+](=O)[O-])c2)ncc1C(=O)Nc1cc(NC(=O)c2ccc(OC)c(OC)c2)ccc1C,680,1400,1600,7300
CNc1nc(Nc2ccc(C)c(N)c2)ncc1C(=O)Nc1cc(NC(=O)c2cc(OC)cc(OC)c2)ccc1C,230,628,311,> 10000
CNc1nc(Nc2ccc(C)c([N+](=O)[O-])c2)ncc1C(=O)Nc1cc(NC(=O)c2cc(OC)c(OC)c(OC)c2)ccc1C,430,931,1500,> 10000
CNc1nc(Nc2ccc(C)c([N+](=O)[O-])c2)ncc1C(=O)Nc1cc(NC(=O)c2ccccc2OC)ccc1C,> 10000,> 10000,> 10000,> 10000
CNc1nc(Nc2ccc(C)c(N)c2)ncc1C(=O)Nc1cc(NC(=O)c2ccc3c(c2)OCCO3)ccc1C,320,787,1100,> 10000
Cc1ccc(Nc2ncc3c(n2)N(C)C(=O)N(c2cc(NC(=O)c4cccc(-c5ccccc5)c4)ccc2C)C3)cc1N,23,39,46,> 10000
CNc1nc(Nc2ccc(C)c([N+](=O)[O-])c2)ncc1C(=O)Nc1cc(NC(=O)c2ccc3c(c2)OCCO3)ccc1C,320,4240,4100,> 10000
Cc1ccc(Nc2ncc3c(n2)N(C)C(=O)N(c2cc(NC(=O)c4cccc(C(F)(F)F)c4)ccc2C)C3)cc1N(C)C,28,42,30,> 10000

# Now from value to molecule, other results behind:
GI50 [1] [nM],GI50 [3] [nM],GI50 [4] [nM],Compound,GI50 at 72 h [2] [nM]
13,15,32,Cc1ccc(Oc2ncc3c(n2)N(C)C(=O)N(c2cc(NC(=O)c4cccc(C(F)(F)F)c4)ccc2C)C3)cc1N,> 10000
18,105,55,Cc1ccc(NC(=O)c2cccc(C(F)(F)F)c2)cc1N1Cc2cnc(NC3CCN(C(=O)OC(C)(C)C)CC3)nc2N(C)C1=O,7520
380,1100,1600,CNc1nc(Nc2ccc(C)c(N)c2)ncc1C(=O)Nc1cc(NC(=O)c2ccc(OC)c(OC)c2)ccc1C,> 10000
9,,,Cc1ccc(Nc2ncc3c(n2)N(C)C(=O)N(c2cc(NC(=O)c4cccc(C(F)(F)F)c4)ccc2C)C3)cn1,120
30,292,126,Cc1ccc(NC(=O)c2cccc(C(F)(F)F)c2)cc1N1Cc2cnc(O[C@H]3CCN(C(=O)OC(C)(C)C)C3)nc2N(C)C1=O,8380
1530,2900,3600,CNc1nc(Nc2ccc(C)c([N+](=O)[O-])c2)ncc1C(=O)Nc1cc(NC(=O)c2ccc(OC)cc2)ccc1C,> 10000
450,1380,1260,Cc1ccc(NC(=O)c2cccc(C(F)(F)F)c2)cc1N1Cc2cnc(O[C@H]3CCNC3)nc2N(C)C1=O,> 10000
> 10000,> 10000,> 10000,Cc1ccc(NC(=O)c2cccc(C(F)(F)F)c2)cc1NC(=O)c1cnc(Nc2ccc(C)c([N+](=O)[O-])c2)nc1N(C)C,> 10000
29,185,67,Cc1ccc(NC(=O)c2cccc(C(F)(F)F)c2)cc1N1Cc2cnc(Nc3ccc(C)c(C(F)(F)F)c3)nc2N(C)C1=O,> 10000
480,983,1100,CNc1nc(Nc2ccc(C)c([N+](=O)[O-])c2)ncc1C(=O)Nc1cc(NC(=O)c2cccc(OC)c2)ccc1C,6310
220,2040,2700,Cc1ccc(NC(=O)c2cccc(C(F)(F)F)c2)cc1N1Cc2cnc(OC3CCNCC3)nc2N(C)C1=O,> 10000
380,1400,1200,Cc1ccc(NC(=O)c2cccc(C(F)(F)F)c2)cc1NC(=O)c1cnc(Nc2ccc(C)c([N+](=O)[O-])c2)nc1,8700
1210,1030,1850,Cc1ccc(Nc2ncc(C(=O)Nc3cc(NC(=O)c4cccc(C(F)(F)F)c4)ccc3C)c(N(C)C)n2)cc1N,> 10000
52,87,36,CNc1nc(Nc2ccc(C)c([N+](=O)[O-])c2)ncc1C(=O)Nc1cc(NC(=O)c2cccc(C(F)(F)F)c2)ccc1C,> 10000
499,1290,214,CNc1nc(Nc2ccc(C)c([N+](=O)[O-])c2)ncc1C(=O)Nc1cc(NC(=O)c2ccc3c(c2)OCO3)ccc1C,> 10000
7,9,15,Cc1ccc(NC(=O)c2cccc(C(F)(F)F)c2)cc1N1Cc2cnc(NCCCN3CCOCC3)nc2N(C)C1=O,5600
